Assays:
[1] = Rat pharmacokinetics after a single intravenous dose; assay type: in vivo, Rats (male Sprague Dawley); conditions: single intravenous dose 0.5 mg/kg, plasma, individual rats
Description: Rats (male Sprague Dawley, approximately 300 g with jugular cannulae) were given a single intravenous dose of 0.5 mg/kg of budesonide or passively targeted nanoparticles (PTNP) encapsulating budesonide (prepared as in Example 16) at time=0. At various times after dosing, blood samples were collected from the jugular cannulae into tubes containing lithium heparin, and plasma was prepared. Plasma levels were determined by extraction of the budesonide from plasma followed by LCMS analysis.

[2] = system: indomethacin induced inflammatory bowel disease in rats; experiment: Rat model of inflammatory bowel disease (IBD); assay type: in vivo; conditions: 5 days, female rats
Description: Budesonide and Budesonide PTNP were compared in a model of inflammatory bowel disease (IBD) as an efficacy model of inflammation. In this model, female rats were given two subcutaneous doses of 8 mg/kg indomethacin at 24 hour intervals to induce lesions resembling those occurring in Crohn's disease in the small intestine. Intravenous daily treatment with vehicle, budesonide (0.02, 0.2 or 2 mg/kg) or budesonide PTNP (0.02, 0.2 or 2 mg/kg) or oral daily treatment with Dexamethasone (0.1 mg/kg) was initiated one day before indomethacin treatment (day −1) and continued for 5 total days (days −1 to 3). Animals were euthanized on day 4, and a 10 cm area at risk in the small intestine was scored for gross pathology and weighed.
Using a disease scoring system in which a score of 0 is normal, and a score of 5 indicates death due to IBD symptoms, normal rats have an average score of 0, and an average intestinal weight of 0.488 g.

AUCinf [1]: 159 ng·h/mL
t1/2 [1]: 45 min
SMILES: CCCC1O[C@@H]2C[C@H]3[C@@H]4CCC5=CC(=O)C=C[C@]5(C)[C@H]4[C@@H](O)C[C@]3(C)[C@]2(C(=O)CO)O1 (some centres unmarked) [Budesonide, budesonide]
decrease of intestinal scores towards normal ([2]; 0.02 mg/kg intravenous daily): 52%
decrease of small intestine weights toward normal ([2]; 0.02 mg/kg intravenous daily): 52%
decrease of intestinal scores towards normal ([2]; 0.2 mg/kg intravenous daily): 53%
decrease of small intestine weights toward normal ([2]; 0.2 mg/kg intravenous daily): 53%
decrease of intestinal scores towards normal ([2]; 2 mg/kg intravenous daily): 59%
decrease of small intestine weights toward normal ([2]; 2 mg/kg intravenous daily): 59%

From patent publication US8518963B2, “Therapeutic polymeric nanoparticle compositions with high glass transition temperature or high molecular weight copolymers” (BIND Therapeutics, Inc., priority 2009, dated 2013)
